Converted amounts (≈) assume the structure as drawn. Read-outs that look alike come from different tables or passages of the source.

What all share (format): cell-based
For assay [1], the system named is B16 (Lignée de mélanome murin). Put plainly: MTT test, anti-tumour activity on B16 cell line. The settings on record: for IC50: Mus musculus, B16, light or radiation study. On the procedure:
(§1) Différents composés de l'invention ont été testés pour leurs activités anti-tumorales sur différentes lignées tumorales murines ou humaines et comparés à des produits anti-tumoraux connus.
(§2) Les lignées cellulaires testées sont la lignée lymphoblastoïde murine P388, la lignée de mélanome murin B16, la lignée de kératinocytes humains HaCaT, la lignée de mélanome humain HBL.
(§3) L'action anti-tumorale des composés de l'invention a été testée sur ces différentes lignées après différentes durées d'incubation (30 minutes, 2 heures, 3 heures, 48 heures ou 72 heures).
(§4) En outre, différents types d'irradiation, différentes durées d'irradiation (30 minutes ou 60 minutes) ainsi que différentes durées d'incubation ont été testés.
(§5) Les différents résultats sont présentés dans le tableau 1 annexé.

Assay [2] relates to P388 (Lignée lymphoblastoïde murine). Briefly: MTT test, anti-tumour activity on P388 cell line. The settings on record: for IC50: Mus musculus. As for the experimental part: as §1, §2, §3, §4, §5
The subject of assay [3] is HaCaT (Lignée de kératinocytes humains). Briefly: MTT test, anti-tumour activity on HaCaT cell line. The settings on record: Homo sapiens, rest 24 h, incubation 3 h, 4°C, incubation before MTT test 45 h, read-out: Dose efficace DL50. As for the experimental part:
as §1, §2, §3, §4, §5

Assay [4] has as its system HBL (Lignée de mélanome humain). Put plainly: MTT test, anti-tumour activity on HBL cell line. The settings on record: Homo sapiens, rest 24 h, incubation 3 h, 4°C, incubation before MTT test 45 h, read-out: Dose efficace DL50. As for the experimental part: as §1, §2, §3, §4, §5
Where [5] appears, read: light or radiation study, UVA Cléo + filtre UVB + polyéthylène, irradiation 60 min.
[6] abbreviates: B16, rest after culture 24 h, incubation 2 h, no irradiation, incubation before MTT test 72 h, read-out: Dose efficace DL50.
[7] abbreviates: B16, rest after culture 24 h, incubation 72 h, no irradiation, incubation before MTT test 0 h, read-out: Dose efficace DL50.
The mark [8] stands for this setting: light or radiation study, P388, rest after culture 24 h, incubation 2 h, no irradiation, incubation before MTT test 48 h, read-out: Dose efficace DL50.
Setting [9] is: P388, rest after culture 24 h, incubation 48 h, no irradiation, incubation before MTT test 0 h.
Setting [10] is: B16, rest after culture 24 h, incubation 2 h, no irradiation, incubation before MTT test 72 h.
Setting [11] is: B16, rest after culture 24 h, incubation 72 h, no irradiation, incubation before MTT test 0 h.
Where [12] appears, read: P388, rest after culture 24 h, incubation 2 h, no irradiation, incubation before MTT test 48 h.
The mark [13] stands for this setting: read-out: Dose efficace DL50, B16, rest after culture 24 h, incubation 2 h, no irradiation, incubation before MTT test 72 h.
[14] abbreviates: read-out: Dose efficace DL50, B16, rest after culture 24 h, incubation 72 h, no irradiation, incubation before MTT test 0 h.
[15] abbreviates: P388, light or radiation study, read-out: Dose efficace DL50, P388, rest after culture 24 h, incubation 2 h, no irradiation, incubation before MTT test 48 h.
[16] abbreviates: P388, light or radiation study, read-out: Dose efficace DL50, P388, rest after culture 24 h, incubation 48 h, no irradiation, incubation before MTT test 0 h.

`N[C@@H](Cc1ccc(N(CCCl)CCCl)cc1)C(=O)O` [Melphalan, reference compound]: the “Dose efficace DL50” value in assay [1] was 10 µg/mL; in assay [2] it was 7 µg/mL. In addition, the IC50 in assay [1] (read-out: Dose efficace DL50) stood at 12 µg/mL (≈ 39.3 µM); in assay [2] (P388, light or radiation study, read-out: Dose efficace DL50), 9 µg/mL (≈ 29.5 µM).

As for `CNC1=Nc2ccc(Cl)cc2C(c2ccccc2)=[N+]([O-])C1` [chlordiazépoxide, chlorodiazépoxide, reference compound], the IC50 is 36 µg/mL in assay [3] (light or radiation study, UVA Cléo + filtre UVB + polyéthylène, irradiation 30 min); 24 µg/mL in assay [3] (setting [5]); greater than 100 µg/mL in assay [3] (no light source (---), 30 min); 12 µg/mL in assay [4] (setting [5]); greater than 100 µg/mL in assay [4] (no light source (---), 30 min); 7 µg/mL (≈ 23.4 µM) in assay [1] (B16, rest 24 h, incubation 30 min, lampe de Wood, RT, irradiation 30 min, no time before washing (---), incubation before MTT test 72 h, read-out: Dose efficace DL50). The IC50 in assay [1] (B16, rest 24 h, incubation 30 min, lampe de Wood, RT, irradiation 30 min, time before washing 1 h, incubation before MTT test 72 h, read-out: Dose efficace DL50) is 9 µg/mL (≈ 30 µM); in assay [1] (setting [6]) it was greater than 100 µg/mL; in assay [1] (setting [7]) it was greater than 100 µg/mL; in assay [2] (setting [8]) it was greater than 100 µg/mL. Moreover, in assay [2] (setting [9]), the “Dose efficace DL50” value is greater than 100 µg/mL.

As to `CNC1=Nc2ccccc2C(c2ccccc2)=[N+]([O-])C1` [deschlordiazépoxide, deschlorodiazépoxide], the “Dose efficace DL50” value in assay [1] (setting [10]), in assay [1] (setting [11]), in assay [2] (setting [12]) and in assay [2] (setting [9]) was greater than 100 µg/mL each time.

For the molecule `O=C1C[N+]([O-])=C(c2ccccc2)c2cc(Cl)ccc2N1` [démoxépan, demoxepan], the IC50 in assay [1] (setting [6]), in assay [1] (setting [7]) and in assay [2] (setting [8]) was greater than 100 µg/mL in each case. The “Dose efficace DL50” value in assay [2] (setting [9]) is greater than 100 µg/mL.

In the case of `CNC1=Nc2ccc(Cl)cc2C2(c3ccccc3)ON2C1` (centres unmarked) [oxaziridine du chlordiazépoxide, oxaziridine de chlorodiazépoxide], the IC50 came to 32 µg/mL (≈ 107 µM) in assay [1] (setting [13]), 15 µg/mL (≈ 50 µM) in assay [1] (setting [14]), 41 µg/mL (≈ 137 µM) in assay [2] (setting [15]) and 34 µg/mL (≈ 113 µM) in assay [2] (setting [16]).

With `O=C1CN2OC2(c2ccccc2)c2cc(Cl)ccc2N1` (centres unmarked) [oxaziridine du démoxépan, oxaziridine de demoxepan], the IC50 in assay [1] (setting [13]) was determined as 22 µg/mL (≈ 76.7 µM); in assay [1] (setting [14]), 11 µg/mL (≈ 38.4 µM); in assay [2] (setting [15]), 62 µg/mL (≈ 216 µM); in assay [2] (setting [16]), 22 µg/mL (≈ 76.7 µM).

Turning to “oxaziridine de deschlorodiazépoxide [oxaziridine du deschlordiazépoxide]”, the “Dose efficace DL50” value in assay [1] (setting [10]) turned out to be 14 µg/ml μg/ml; in assay [1] (setting [11]), 8 µg/ml μg/ml; in assay [2] (setting [12]), 22 µg/mL; in assay [2] (setting [9]) it was 12 µg/mL.

The values are drawn from patent publication EP1369117A1, “Use of derivatives and precursors of oxaziridine in the treatment of cancerous tumours” (priority 2002, dated 2003).
